Results as given in US11046954B2, “Targeted protein degradation to attenuate adoptive T-cell therapy associated adverse inflammatory responses” (Dana-Farber Cancer Institute, Inc., priority 2015, dated 2021).
“Also recorded” adds a separate entry of the source.

Legend:
Assay type in all cases: cell-based
FKBP12WT = target: T1, FKBP12WT (Homo sapiens, UniProt P62942); experiment: Immunoblot of 293FT cells (CRBN-WT or CRBN−/−) expressing FKBP12WT; details: for degradation of FKBP12WT or endogenous FKBP12: isogenic 293FT CRBN-WT or CRBN−/−, 100 nM, 4 hours
T1 construct: HA; expressed in transfected cells; host or cells: 293FT cells (CRBN-WT or CRBN-/-)
Method: FIG. 6 is an immunoblot of cells treated with bi-functional molecules described in the present invention. 293FT cells (CRBN-WT or CRBN−/−) expressing either HA-tagged FKBP12WT or FKBP* (also referred to as dFKBP12* herein) were treated with indicated concentrations of dFKBP7 for 4 hours.
Isogenic 293FT cells (CRBN-WT or CRBN−/−) expressing either FKBP12WT or FKBP* were treated with 100 nM of either dFKBP7 or dFKBP13 for 4 hours.
The dTAG is predicated on the selectivity of FKBP* specific ligands over endogenous, wild type FKBP. […] An immunoblot of cells treated with bi-functional molecules described in the present invention was performed. 293FT cells (CRBN-WT or CRBN−/−) expressing either HA-tagged FKBP12WT or FKBP* were treated with indicated concentrations of dFKBP7 for 4 hours.
Isogenic 293FT cells (CRBN-WT or CRBN−/−) were engineered to express either FKBP12WT or FKBP*. Cells were treated with 100 nM of either dFKBP7 or dFKBP13 for 4 hours before lysates were prepared for western immunoblot analysis.

FKBP* fused to Nluc = target: T2, FKBP* fused to Nluc (Homo sapiens, UniProt P62942+Q96SW2, F37V); experiment: Nluc/Fluc luciferase signal ratio assay of FKBP* degradation in 293FT cells; details: wild type or CRBN −/− 293FT; indicated concentrations, 4 hours
T2 construct: Nluc (nano luciferase, fusion partner); expressed in transfected cells; host or cells: 293FT cells (wild type or CRBN-/-)
Method: FIG. 7A and FIG. 7B are graphs measuring the activity of a panel of dFKBP heterobifunctional compounds in cells expressing FKBP* fused to Nluc. Degradation of FKBP* is measured as a signal ratio (Nluc/Fluc) between NANOluc and firefly luciferase from the same multicistronic transcript in wild type (FIG. 7A) or CRBN −/− (FIG. 7B) 293FT cells treated with indicated concentrations of dFKBPs for 4 hours. A decrease in the signal ratio indicates FKBP* (Nluc) degradation.
In an effort to identify potent and selective dFKPB heterobifunctional compounds, high throughput measurements of targeted FKBP* degradation were measured by surrogate levels of luciferase. Here, FKBP* is exogenously expressed as a multicistronic transcript with two types of luciferase: nano luciferase (NLuc) and firefly luciferase (FLuc) that allow for cell normalized quantification of FKBP* protein levels. Degradation of FKBP* is measured as a signal ration (Nluc/Fluc) in wild type (FIG. 7A) or CRBN −/−(FIG. 7B) 293FT cells treated with indicated concentrations of dFKBPs for 4 hours.

FKBP*-KRASG12V = experiment: Immunoblot of NIH3T3 cells expressing FKBP* fused to KRASG12V: degradation
Method: (§1) FIG. 19 is an immunoblot of NIH3T3 cells expressing KRASG12V allele fused to FKBP* in the N-terminus or C-terminus. Cells were treated with 500 nM dFKBP7 for the indicated time. Cells were harvested and immunoblotted to measure degradation of FKBP*-KRASG12V and downstream surrogates of KRAS signaling (e.g. pMEK and pAKT).
(§2) FIG. 20 is an immunoblot of NIH3T3 cells expressing FKBP* fused to the N-terminus of KRASG12V treated with luM of the indicated dFKBP heterobifunctional compounds for 24 hours. Cells were harvested and immunoblotted to measure degradation of FKBP*-KRASG12V and downstream surrogates of KRAS signaling (e.g. pMEK and pAKT).
as §2, with “21” for “20”, “with” for “with luM of”, “concentrations of dFKBP13” for “dFKBP heterobifunctional compounds”
(§3) FIG. 22 is an immunoblot of NIH3T3 cells expressing FKBP* fused to the N-terminus of KRASG12V treated with luM dFKBP13 for the indicated time. Cells were harvested and immunoblotted to measure degradation of FKBP*-KRASG12V and downstream surrogates of KRAS signaling (e.g. pMEK and pAKT).
(§4) Cells were treated with 500 nM dFKBP7 for the indicated time. Cells were harvested and immunoblotted to measure degradation of FKBP*-KRAS and downstream surrogates of KRAS signaling (e.g. pMEK and pAKT).
(§5) Western blotting of NIH3T3 cells expressing dTAG-KRASG12V were treated with 1 μM of the indicated dFKBP heterobifunctional compounds for 24 hours. Cells were harvested and immunoblotted to measure degradation of FKBP*-KRAS and downstream surrogates of KRAS signaling (e.g. pMEK and pAKT).
(§6) Western blotting of NIH3T3 cells expressing FKBP* fused to the N-terminus of KRAS treated with the indicated concentrations of dFKBP13 for 24 hours. Cells were harvested and immunoblotted to measure degradation of FKBP*-KRAS and downstream surrogates of KRAS signaling (e.g. pMEK and pAKT).
(§7) To evaluate the kinetic control of targeted degradation of dTAG-KRAS, dFKBP13 was administered by increased duration. Western blotting of NIH3T3 cells expressing FKBP* fused to the N-terminus of KRAS treated with 1 μM dFKBP13 for the indicated time. Cells were harvested and immunoblotted to measure degradation of FKBP*-KRAS and downstream surrogates of KRAS signaling (e.g. pMEK and pAKT).

[1] = test system: downstream surrogates of KRAS signaling (e.g. pMEK and pAKT); experiment: Immunoblot of NIH3T3 cells expressing FKBP*-KRASG12V: downstream KRAS signaling
Method: as §1, §2
as §3, with “21” for “22”, “the indicated concentrations of” for “luM”, “24 hours.” for “the indicated time.”
as §3, §4, §5, §6, §7

FKBP* = target: T3, FKBP* (Homo sapiens, UniProt P62942, F37V); experiment: Immunoblot of 293FT cells (CRBN-WT) expressing FKBP*, pretreated with Carfilzomib, MLN4924 or Lenalidomide before dFKBP13
T3 construct: HA; expressed in transfected cells; host or cells: 293FT cells (CRBN-WT or CRBN-/-)
Method: (§8) 293FT cells (CRBN-WT) expressing FKBP* were pretreated with luM Carfilzomib (proteasome inhibitor), 0.5 uM MLN4924 (neddylation inhibitor), and 10 uM Lenalidomide (CRBN binding ligand) for two hours prior to a 4 hour treatment with dFKBP13.
as §8, with “were engineered to express FKBP*. Cells” for “expressing FKBP*”, “dFKBP13. Lysates were prepared and western immunoblot analysis performed.” for “dFKBP13.”

T3 sequence (P62942 whole entry F37V): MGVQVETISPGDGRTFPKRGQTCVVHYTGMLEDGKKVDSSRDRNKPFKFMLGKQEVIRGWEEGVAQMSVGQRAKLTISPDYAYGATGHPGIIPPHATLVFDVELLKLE
T1 sequence (P62942 whole entry): as the sequence (P62942 whole entry F37V) above, with V37F counted along it
T2 sequence (P62942 2-108 F37V): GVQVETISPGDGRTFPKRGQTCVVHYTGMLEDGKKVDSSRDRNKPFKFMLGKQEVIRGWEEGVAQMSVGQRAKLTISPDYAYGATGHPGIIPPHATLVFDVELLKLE
T2 sequence (Q96SW2 whole entry, the tested form may be a part): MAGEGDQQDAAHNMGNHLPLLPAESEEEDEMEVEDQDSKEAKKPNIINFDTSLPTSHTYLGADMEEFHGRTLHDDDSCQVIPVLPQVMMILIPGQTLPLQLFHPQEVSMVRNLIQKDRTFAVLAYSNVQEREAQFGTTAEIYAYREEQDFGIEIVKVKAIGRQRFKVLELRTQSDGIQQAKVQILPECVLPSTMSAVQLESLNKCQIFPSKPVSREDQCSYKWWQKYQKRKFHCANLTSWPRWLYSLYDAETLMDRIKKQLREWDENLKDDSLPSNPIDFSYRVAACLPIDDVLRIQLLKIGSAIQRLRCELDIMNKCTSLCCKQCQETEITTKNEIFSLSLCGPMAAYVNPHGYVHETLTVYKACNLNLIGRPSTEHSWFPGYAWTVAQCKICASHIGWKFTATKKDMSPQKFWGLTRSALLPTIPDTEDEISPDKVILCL
T2 sequence (Q16531 whole entry partner, the tested form may be a part): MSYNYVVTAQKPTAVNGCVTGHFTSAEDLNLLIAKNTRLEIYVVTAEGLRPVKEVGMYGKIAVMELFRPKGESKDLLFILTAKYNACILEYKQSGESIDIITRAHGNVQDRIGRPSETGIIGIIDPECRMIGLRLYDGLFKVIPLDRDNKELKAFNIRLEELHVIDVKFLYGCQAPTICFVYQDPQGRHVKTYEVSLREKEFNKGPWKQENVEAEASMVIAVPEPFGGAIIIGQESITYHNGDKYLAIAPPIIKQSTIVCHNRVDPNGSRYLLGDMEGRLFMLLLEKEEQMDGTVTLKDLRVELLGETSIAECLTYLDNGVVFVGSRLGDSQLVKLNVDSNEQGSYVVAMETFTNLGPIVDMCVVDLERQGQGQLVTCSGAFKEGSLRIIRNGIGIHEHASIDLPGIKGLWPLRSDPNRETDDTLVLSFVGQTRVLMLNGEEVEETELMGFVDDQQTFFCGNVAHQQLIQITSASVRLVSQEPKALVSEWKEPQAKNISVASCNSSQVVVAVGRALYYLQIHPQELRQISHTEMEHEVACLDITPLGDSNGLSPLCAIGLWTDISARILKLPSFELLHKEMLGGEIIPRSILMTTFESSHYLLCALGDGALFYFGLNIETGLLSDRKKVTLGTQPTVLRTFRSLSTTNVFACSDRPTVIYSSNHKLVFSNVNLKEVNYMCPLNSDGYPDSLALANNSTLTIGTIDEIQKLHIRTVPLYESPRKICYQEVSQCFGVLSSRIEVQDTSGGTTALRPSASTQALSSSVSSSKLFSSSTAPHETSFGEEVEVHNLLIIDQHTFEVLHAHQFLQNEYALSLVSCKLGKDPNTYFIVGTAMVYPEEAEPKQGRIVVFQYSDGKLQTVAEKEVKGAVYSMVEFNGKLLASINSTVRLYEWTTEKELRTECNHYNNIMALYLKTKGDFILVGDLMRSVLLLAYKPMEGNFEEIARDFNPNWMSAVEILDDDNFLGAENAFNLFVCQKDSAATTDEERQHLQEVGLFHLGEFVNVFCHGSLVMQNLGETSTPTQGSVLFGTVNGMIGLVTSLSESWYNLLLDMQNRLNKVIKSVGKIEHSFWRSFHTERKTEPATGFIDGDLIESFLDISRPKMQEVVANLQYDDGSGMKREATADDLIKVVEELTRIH

SMILES	degradation of HA-tagged FKBP12WT (FKBP12WT; 293FT CRBN-WT or CRBN−/−, indicated concentrations of dFKBP7, 4 hours)	degradation of FKBP12WT or endogenous FKBP12 (FKBP12WT)	FKBP* (Nluc) degradation, signal ratio (Nluc/Fluc) (FKBP* fused to Nluc)	degradation of FKBP*-KRASG12V (FKBP*-KRASG12V; 500 nM dFKBP7, indicated time, N-terminal fusion)	downstream p-AKT signal ([1]; NIH3T3 N-terminal dTAG-KRAS, 500 nM dFKBP7, indicated time)	degradation of HA-tagged FKBP* by dFKBP13 after MLN4924 pretreatment (FKBP*; 0.5 uM MLN4924 (neddylation inhibitor) two hours prior to 4 hour dFKBP13)	degradation of HA-tagged FKBP* by dFKBP13 after Carfilzomib pretreatment (FKBP*; 1 uM Carfilzomib (proteasome inhibitor) two hours prior to 4 hour dFKBP13)	degradation of FKBP* by dFKBP13 after Lenalidomide pretreatment (FKBP*; 10 uM Lenalidomide (CRBN binding ligand) two hours prior to 4 hour dFKBP13)	time at which degradation of FKBP*-KRASG12V and inhibition of downstream signaling are seen (FKBP*-KRASG12V; 1 μM dFKBP13, indicated time) [h]	degradation of FKBP*-KRASG12V (FKBP*-KRASG12V; 1 μM, 24 hours)	degradation of FKBP*-KRASG12V (FKBP*-KRASG12V; indicated concentrations of dFKBP13, 24 hours)	inhibition of downstream signaling (pMEK, pAKT) ([1]; NIH3T3 FKBP*-KRASG12V, 1 μM, 24 hours)	IC50 ([1]; NIH3T3 FKBP*-KRASG12V, indicated concentrations of dFKBP13, 24 hours, read-out: IC50, inhibits downstream signaling) [nM]
CC[C@H](C(=O)N1CCCC[C@H]1C(=O)O[C@H](CCc1ccc(OC)c(OC)c1)c1cccc(OCC(=O)NCCCOCCOCCOCCCNC(=O)COc2cccc3c2C(=O)N(C2CCC(=O)NC2=O)C3=O)c1)c1cc(OC)c(OC)c(OC)c1 (some centres unmarked) [dFKBP7]	not FKBPWT	not FKBP12WT or endogenous FKBP12	effectively degrade FKBP* in a cereblon dependent manner	potent degradation; also recorded: N-terminal FKBP* fusions are active and degraded	downstream decrease in p-AKT signal	–	–	–	–	–	–	–	–
CC[C@H](C(=O)N1CCCC[C@H]1C(=O)O[C@H](CCc1ccc(OC)c(OC)c1)c1cccc(OCC(=O)NCCCCCCOc2cccc3c2C(=O)N(C2CCC(=O)NC2=O)C3=O)c1)c1cc(OC)c(OC)c(OC)c1 (some centres unmarked) [dFKBP13]	–	not FKBP12WT or endogenous FKBP12	–	–	–	rescued HA-tagged FKBP*	rescued by the proteasome inhibitor Carfilzomib	abolished dFKBP13-dependent FKBP* degradation	≤ 1	potent degradation	potently degrades dTAG-KRAS at nanomolar concentrations; also recorded: potent degradation	inhibition of downstream signaling	> 100
